Assay results as given in the NIST ThermoML archive (doi:10.1016/j.jct.2012.01.013).
Numbers after ± are expanded uncertainties.

Details: 101.33 kPa, Liquid; for viscosity: Falling or rolling sphere viscometry; for mass density: Vibrating tube method

SMILES: CC(=O)[O-].Cn1cc[nH+]c1 [1-methylimidazolium acetate]
- viscosity (293.15 K): 8.196 ± 0.094 mPa·s
- mass density (293.15 K): 1079.75 ± 0.29 kg/m3
- viscosity (298.15 K): 6.926 ± 0.085 mPa·s
- mass density (298.15 K): 1075.33 ± 0.29 kg/m3
- viscosity (303.15 K): 5.913 ± 0.079 mPa·s
- mass density (303.15 K): 1070.89 ± 0.29 kg/m3
- viscosity (308.15 K): 5.069 ± 0.075 mPa·s
- mass density (308.15 K): 1066.45 ± 0.28 kg/m3
- viscosity (313.15 K): 4.395 ± 0.071 mPa·s
- mass density (313.15 K): 1062 ± 0.28 kg/m3

SMILES: CCCCO [butan-1-ol]
- viscosity (293.15 K): 2.941 ± 0.064 mPa·s
- mass density (293.15 K): 809.77 ± 0.14 kg/m3
- viscosity (298.15 K): 2.573 ± 0.063 mPa·s
- mass density (298.15 K): 805.98 ± 0.14 kg/m3
- viscosity (303.15 K): 2.264 ± 0.062 mPa·s
- mass density (303.15 K): 802.08 ± 0.15 kg/m3
- viscosity (308.15 K): 2.002 ± 0.062 mPa·s
- mass density (308.15 K): 798.19 ± 0.15 kg/m3
- viscosity (313.15 K): 1.788 ± 0.061 mPa·s
- mass density (313.15 K): 794.36 ± 0.15 kg/m3

SMILES: CCO [ethanol]
- mass density (293.15 K): 789.48 ± 0.15 kg/m3
- mass density (298.15 K): 785.41 ± 0.15 kg/m3
- mass density (303.15 K): 780.65 ± 0.15 kg/m3
- mass density (308.15 K): 776.31 ± 0.15 kg/m3
- mass density (313.15 K): 772.08 ± 0.15 kg/m3

SMILES: CO [methanol]
- viscosity (293.15 K): 0.588 ± 0.06 mPa·s
- mass density (293.15 K): 791.22 ± 0.15 kg/m3
- viscosity (298.15 K): 0.551 ± 0.06 mPa·s
- mass density (298.15 K): 786.52 ± 0.15 kg/m3
- viscosity (303.15 K): 0.517 ± 0.06 mPa·s
- mass density (303.15 K): 781.81 ± 0.15 kg/m3
- viscosity (308.15 K): 0.486 ± 0.06 mPa·s
- mass density (308.15 K): 777.06 ± 0.15 kg/m3
- viscosity (313.15 K): 0.46 ± 0.06 mPa·s
- mass density (313.15 K): 772.27 ± 0.15 kg/m3

SMILES: CCCO [propan-1-ol]
- viscosity (293.15 K): 2.206 ± 0.062 mPa·s
- mass density (293.15 K): 803.58 ± 0.15 kg/m3
- viscosity (298.15 K): 1.976 ± 0.062 mPa·s
- mass density (298.15 K): 799.61 ± 0.15 kg/m3
- viscosity (303.15 K): 1.737 ± 0.061 mPa·s
- mass density (303.15 K): 795.6 ± 0.15 kg/m3
- viscosity (308.15 K): 1.548 ± 0.061 mPa·s
- mass density (308.15 K): 791.51 ± 0.15 kg/m3
- viscosity (313.15 K): 1.383 ± 0.061 mPa·s
- mass density (313.15 K): 787.39 ± 0.15 kg/m3

SMILES: O [water]
- viscosity (293.15 K): 1.002 ± 0.06 mPa·s
- viscosity (298.15 K): 0.891 ± 0.06 mPa·s
- viscosity (303.15 K): 0.798 ± 0.06 mPa·s
- viscosity (308.15 K): 0.718 ± 0.06 mPa·s
- viscosity (313.15 K): 0.652 ± 0.06 mPa·s
